Assay results as given in patent US8486372B2, “Cyclic azapeptides as integrin markers and methods of using” (Siemens Medical Solutions USA, Inc., priority 2007, dated 2013).

Target: T1, Integrin αvβ3 expressing U87MG cells (Homo sapiens, UniProt P05106+P06756)
T1 construct: Integrin αvβ3 expressing U87MG cells; endogenous in cells; host or cells: U87MG cells
Test: Cell-based integrin binding competition assay against green fluorescence labeled compound 13
Conditions: 0-32 μM compound, 2 μM compound 13, 2 hrs, fluorescence reading, FIG. 2
Description: Integrin αvβ3 expressing U87MG cells were incubated with a series of concentration of RGD compounds (0-32 μM) in the presence of 2 μM of green fluorescence labeled compound 13 for 2 hrs. After incubation, cells were washed three times to eliminate unbound RGD compounds. Fluorescence readings (RLU) were then taken (excitation at 491 nm, emission at 518 nm, cutoff 515 nm).

N=C(N)NCCC[C@@H]1NC(=O)[C@H](CCCCN)NC(=O)N(Cc2ccccc2)NC(=O)[C@H](CC(=O)O)NC(=O)CNC1=O [Compound 7, 2-((5S,8S,14S)-5-(4-aminobutyl)-2-benzyl-8-(3-guanidinopropyl)-3,6,9,12,15-pentaoxo-1,2,4,7,10,13-hexaazacyclopentadecan-14-yl)acetic acid]
potency in binding competition: very similar in potency
